BindingDB's records for patent US20250313563 (The Broad Institute, 2025)
Where “and” joins values, the source holds several entries; their conditions need not be identical. Equal values may be shown once.

How the values were obtained:
[1] = molecular target: Glycogen synthase kinase-3 alpha (Homo sapiens, UniProt P49840); test: TR-FRET Assay
Outline: (§1)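 30 min preinc w/ cpd in assay buffer → kinase rxn → EDTA quench → add detection mix (40 nM SA-d2, 2 nM Tb-pSer641 Ab) → TR-FRET read.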

[2] = molecular target: Glycogen synthase kinase-3 beta (Homo sapiens, UniProt P49841); test: TR-FRET Assay
Sequence of Glycogen synthase kinase-3 beta (P49841 whole entry): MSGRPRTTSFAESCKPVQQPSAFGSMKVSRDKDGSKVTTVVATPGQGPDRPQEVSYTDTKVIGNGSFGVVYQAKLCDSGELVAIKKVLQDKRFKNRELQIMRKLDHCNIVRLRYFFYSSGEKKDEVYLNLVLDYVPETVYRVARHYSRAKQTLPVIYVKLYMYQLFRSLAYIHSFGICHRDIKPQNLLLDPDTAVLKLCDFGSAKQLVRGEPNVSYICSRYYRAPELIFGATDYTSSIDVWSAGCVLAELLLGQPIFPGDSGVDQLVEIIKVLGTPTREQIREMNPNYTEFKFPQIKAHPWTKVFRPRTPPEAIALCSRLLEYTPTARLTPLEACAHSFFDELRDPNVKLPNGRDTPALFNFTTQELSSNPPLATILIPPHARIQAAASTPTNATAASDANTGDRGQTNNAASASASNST
Outline: as §1

Sequence of Glycogen synthase kinase-3 alpha (P49840 whole entry): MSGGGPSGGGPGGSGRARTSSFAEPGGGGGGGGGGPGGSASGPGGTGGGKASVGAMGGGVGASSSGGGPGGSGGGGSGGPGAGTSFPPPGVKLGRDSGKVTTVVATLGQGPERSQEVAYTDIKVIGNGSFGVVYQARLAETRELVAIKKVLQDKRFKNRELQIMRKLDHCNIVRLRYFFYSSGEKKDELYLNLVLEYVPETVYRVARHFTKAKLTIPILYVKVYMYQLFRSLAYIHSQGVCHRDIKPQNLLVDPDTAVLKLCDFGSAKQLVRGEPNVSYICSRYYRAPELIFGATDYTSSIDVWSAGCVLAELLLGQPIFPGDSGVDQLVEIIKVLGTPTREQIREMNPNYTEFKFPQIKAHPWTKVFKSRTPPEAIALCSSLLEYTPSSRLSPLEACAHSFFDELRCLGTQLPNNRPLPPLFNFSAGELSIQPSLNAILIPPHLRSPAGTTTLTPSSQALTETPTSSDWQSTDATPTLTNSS

| Compound | IC50 [1] | IC50 [2] |
| --- | --- | --- |
| CC1(C)CC(=O)C2=C(C1)NC1=C(CN=N1)[C@@]21CCN(S(=O)(=O)c2ccccc2)C1 [US20250313563, Compound 951788] | < 100 nM and 100 to 1000 nM | < 100 nM and 1000 to 5000 nM |
| CC[C@]1(c2cccc(N3CCCC3)c2)C2=CN=NC2NC2=C1C(=O)CC(C)(C)C2 (stereo partly specified) [US20250313563, Compound 810509] | > 5000 nM | > 5000 nM |
| CC[C@@]1(c2ccccc2)C2=CN=NC2NC2=C1C(=O)[C@H](C)C[C@@H]2C (stereo partly specified) [US20250313563, Compound 909217] | 100 to 1000 nM | 1000 to 5000 nM |
| CC1(C)CC2=C(C(=O)[C@H]1F)C1(CCOCC1)C1=C(N=NC1)N2 [US20250313563, Compound 883836] | 100 to 1000 nM | 1000 to 5000 nM |
| CC[C@@]1(c2cccc(-c3ccnc(C)c3Cl)c2)C2=CN=NC2NC2=C1C(=O)NC(C)(C)C2 (stereo partly specified) [US20250313563, Compound 948361] | < 100 nM and 100 to 1000 nM | < 100 nM and 1000 to 5000 nM |
| Cn1ccc(-c2cccc([C@]3(C)C4=C(CC(C)(C)CC4=O)NC4=C3C(CC(C)(C)C)N=N4)c2)n1 (stereo partly specified) [US20250313563, Compound 126366] | 1000 to 5000 nM | 100 to 1000 nM |
| CC1(C)CC(=O)C2=C(C1)NC1=C(CN=N1)C21CCN(S(=O)(=O)c2cnc3cccnn23)CC1 [US20250313563, Compound 948120] | < 100 nM and 100 to 1000 nM | < 100 nM and 1000 to 5000 nM |
| CC[C@@]1(c2cccc(C(F)(F)F)c2)C2=C(N=NC2)NC2=C1C(=O)N[C@H]2C [US20250313563, Compound 945381] | > 5000 nM | > 5000 nM |
| CC1(C)CC(=O)C2=C(C1)NC1=C(CN=N1)C21CN(C2CCOCC2)C1 [US20250313563, Compound 932651] | > 5000 nM | > 5000 nM |
| CC[C@@]1(c2cccc(-c3ccnc(C)c3C)c2)C2=CN=NC2NC2=C1C(=O)NC(C)(C)C2 (stereo partly specified) [US20250313563, Compound 948184] | < 100 nM and 100 to 1000 nM | 100 to 1000 nM and 1000 to 5000 nM |
| CC1(C)CC(=O)C2=C(C1)NC1=C(CN=N1)[C@@]21CCOC2(CCCC2)C1 [US20250313563, Compound 907326] | 100 to 1000 nM | 1000 to 5000 nM |
| CC1CC(C(=O)N2CC3(C2)C[C@]2(CO3)C3=C(N=NC3)NC3=C2C(=O)CC(C)(C)C3)C1 (stereo partly specified) [US20250313563, Compound 947732] | 100 to 1000 nM | 1000 to 5000 nM |
| CC[C@@]1(c2cccc(N(C)c3cccc(C)n3)c2)C2=CN=NC2NC2=C1C(=O)CC(C)(C)C2 (stereo partly specified) [US20250313563, Compound 932656] | > 5000 nM | > 5000 nM |
| CC[C@]1(c2cccc(-c3cc(OC)ncc3F)c2)C2=CN=NC2NC2=C1C(=O)CC(C)(C)C2 (stereo partly specified) [US20250313563, Compound 944035] | 1000 to 5000 nM | > 5000 nM |
| CCC1(c2cccc(N3CCCCCC3)c2)C2=CN=NC2NC2=C1C(=O)CC(C)(C)C2 (stereo unspecified) [US20250313563, Compound 885088] | 100 to 1000 nM | 100 to 1000 nM |
| CCC1(c2ccccc2)C2=C(N=NC2)NC2=C1C(=O)CC(C)(C(F)(F)F)C2 (stereo unspecified) [US20250313563, Compound 816796] | 100 to 1000 nM | 1000 to 5000 nM |
| CC[C@]1(c2cccc(N(c3cccnc3)C(C)C)c2)C2=CN=NC2NC2=C1C(=O)CC(C)(C)C2 (stereo partly specified) [US20250313563, Compound 917086] | < 100 nM and 100 to 1000 nM | < 100 nM and 1000 to 5000 nM |
| CC1(C)CC(=O)C2=C(C1)NC1N=NC=C1[C@]21CCOC2(CCCC2)C1 (stereo partly specified) [US20250313563, Compound 907327] | 100 to 1000 nM | 1000 to 5000 nM |
| CC[C@@]1(c2cccc(-c3cnn(C4CC4)c3)c2)C2=CN=NC2NC2=C1C(=O)CC(C)(C)C2 (stereo partly specified) [US20250313563, Compound 913041] | 1000 to 5000 nM | > 5000 nM |
| CCC1(c2cccc(C(F)(F)F)c2)C2=CN=NC2NC2=C1C(=O)N(c1ccccc1)C2 (stereo unspecified) [US20250313563, Compound 918313] | 100 to 1000 nM | 1000 to 5000 nM |
| CC1(C)CC(=O)C2=C(C1)NC1=C(CN=N1)C21CN(c2ccccn2)C1 [US20250313563, Compound 945477] | 1000 to 5000 nM | 1000 to 5000 nM |
| Cn1cc(-c2cccc([C@]3(C)C4=C(CC(C)(C)CC4=O)NC4=C3C(CC(C)(C)C)N=N4)c2)cn1 (stereo partly specified) [US20250313563, Compound 126393] | 1000 to 5000 nM | 100 to 1000 nM |
| CC[C@]1(c2cccc(-c3cc(C)nc(C)c3)c2)C2=CN=NC2NC2=C1C(=O)CC(C)(C)C2 (stereo partly specified) [US20250313563, Compound 913222] | < 100 nM | 100 to 1000 nM |
| CC[C@]1(c2cccc(-c3ccncc3C)c2)C2=CN=NC2NC2=C1C(=O)N[C@@]1(CCCOC1)C2 (stereo partly specified) [US20250313563, Compound 947912] | 100 to 1000 nM | 1000 to 5000 nM |
| CC[C@@]1(c2cccc(-c3cnn(C)c3C)c2)C2=C(CC(C)(C)CC2=O)NC2N=NC(C)=C21 (stereo partly specified) [US20250313563, Compound 913024] | 100 to 1000 nM | 1000 to 5000 nM |
| O=C1C[C@H](C(F)(F)F)CC2=C1C1(CCOCC1)C1=C(N=NC1)N2 [US20250313563, Compound 901477] | 100 to 1000 nM | 1000 to 5000 nM |
| CC[C@]1(c2cccc(Oc3ncccn3)c2)C2=CN=NC2NC2=C1C(=O)NC(C)(C)C2 (stereo partly specified) [US20250313563, Compound 949335] | > 5000 nM | > 5000 nM |
| CCC1(c2cccc(CNC)c2)C2=CN=NC2NC2=C1C(=O)CC(C)(C)C2 (stereo unspecified) [US20250313563, Compound 826651] | 1000 to 5000 nM | > 5000 nM |
| CC(=O)N1CC[C@@]2(C1)C[C@@]1(CO2)C2=C(N=NC2)NC2=C1C(=O)CC(C)(C)C2 [US20250313563, Compound 948320] | 100 to 1000 nM | 1000 to 5000 nM |
| CC1(C)CC(=O)C2=C(C1)NC1=C(CN=N1)C21CCN(S(=O)(=O)c2cnn(C(C)(C)C)c2)CC1 [US20250313563, Compound 945677] | < 100 nM | 100 to 1000 nM |

Next, values leading:

| IC50 [1] | IC50 [2] | Compound |
| --- | --- | --- |
| < 100 nM | < 100 nM | COc1cc(S(=O)(=O)N2CCC3(CC2)C2=C(N=NC2)NC2=C3C(=O)CC(C)(C)C2)ccc1Cl [US20250313563, Compound 945669] |
| < 100 nM | < 100 nM | CC1(C)CC(=O)C2=C(NC3=C(CN=N3)[C@]23CC[C@@H](C(F)(F)F)CC3)[C@@H]1F [US20250313563, Compound 918284] |
| < 100 nM | < 100 nM | CCC1(c2cccc(-c3cnn(C)c3C)c2)C2=C(CC(C)(C)CC2=O)NC2N=NC(C)=C21 (stereo unspecified) [US20250313563, Compound 883993] |
| < 100 nM | 100 to 1000 nM | CC[C@@]1(c2ccccc2)C2=CN=NC2NC2=C1C(=O)[C@H](C)C[C@H]2C (stereo partly specified) [US20250313563, Compound 865201] |
| < 100 nM | < 100 nM and 100 to 1000 nM | CC[C@@]1(c2cccc(N(C)c3ncccn3)c2)C2=C(CC(C)(C)NC2=O)NC2N=NC(C(F)F)=C21 (stereo partly specified) [US20250313563, Compound 951740] |
| < 100 nM | 100 to 1000 nM | CC1(C)CC(=O)C2=C(C1)NC1=C(CN=N1)C21COC2(CN(C(=O)C3CCC(F)CC3)C2)C1 (stereo unspecified) [US20250313563, Compound 947267] |
| < 100 nM | 100 to 1000 nM | CC1(C)CC(=O)C2=C(C1)NC1N=NC=C1[C@]21CCCc2ccccc21 (stereo partly specified) [US20250313563, Compound 930566] |
| < 100 nM | 100 to 1000 nM | CCC1(c2cccc(N(C)c3ccc(C(F)(F)F)nc3)c2)C2=CN=NC2NC2=C1C(=O)CC(C)(C)C2 (stereo unspecified) [US20250313563, Compound 932634] |
| < 100 nM | < 100 nM | COc1cccc(S(=O)(=O)N2CC3(C2)C2=C(N=NC2)NC2=C3C(=O)CC(C)(C)C2)c1 [US20250313563, Compound 918276] |
| < 100 nM | 100 to 1000 nM | CC1(C)CC(=O)C2=C(C1)NC1=C(CN=N1)[C@@]21COC2(CN(C(=O)C(C)(F)F)C2)C1 [US20250313563, Compound 947839] |
| < 100 nM | < 100 nM | CCC1(c2ccccc2)C2=C(CC(C)(C)CC2=O)NC2N=NC(Br)=C21 (stereo unspecified) [US20250313563, Compound 789459] |
| < 100 nM | < 100 nM | CCC1(c2cccc(N(C(C)=O)C3CCCC3)c2)C2=CN=NC2NC2=C1C(=O)CC(C)(C)C2 (stereo unspecified) [US20250313563, Compound 912069] |
| < 100 nM | 100 to 1000 nM | CCC1(c2cccc(OC(C)C)c2)C2=CN=NC2NC2=C1C(=O)CC(C)(C)C2 (stereo unspecified) [US20250313563, Compound 801448] |
| < 100 nM | 100 to 1000 nM | CC[C@]1(c2cccc(N(C)c3ncccn3)c2)C2=C(CC(C)(C)NC2=O)NC2N=NC(C(F)(F)F)=C21 (stereo partly specified) [US20250313563, Compound 949180] |
| < 100 nM | 100 to 1000 nM | CCC1(c2cccc(Nc3ncccn3)c2)C2=CN=NC2NC2=C1C(=O)CC(C)(C)C2 (stereo unspecified) [US20250313563, Compound 913334] |
| < 100 nM | < 100 nM | CCC1(c2cccc(S(=O)(=O)C(C)C)c2)C2=CN=NC2NC2=C1C(=O)NC(C)(C)C2 (stereo unspecified) [US20250313563, Compound 945464] |
| < 100 nM | 100 to 1000 nM | CCC1(c2cccc(N3CCCC3=O)c2)C2=CN=NC2NC2=C1C(=O)CC(C)(C)C2 (stereo unspecified) [US20250313563, Compound 865171] |
| < 100 nM | < 100 nM | CCC1(c2cccc(-c3ccnc(C)c3OC)c2)C2=CN=NC2NC2=C1C(=O)CC(C)(C)C2 (stereo unspecified) [US20250313563, Compound 945458] |
| < 100 nM | < 100 nM | Cc1ncc(S(=O)(=O)N2CCC3(CC2)C2=C(N=NC2)NC2=C3C(=O)CC(C)(C)C2)s1 [US20250313563, Compound 947899] |
| < 100 nM | 100 to 1000 nM | CCn1ccc(S(=O)(=O)N2CCC3(CC2)C2=CN=NC2NC2=C3C(=O)NC(C)(C)C2)n1 (stereo unspecified) [US20250313563, Compound 947836] |
| < 100 nM | < 100 nM | CCC1(c2cccc(-c3ccnc4ccccc34)c2)C2=CN=NC2NC2=C1C(=O)CC(C)(C)C2 (stereo unspecified) [US20250313563, Compound 932631] |
| < 100 nM | < 100 nM | CCC1(c2cccc(Br)c2)C2=C(CC(C)CC2=O)NC2N=NC(C(F)(F)F)=C21 (stereo unspecified) [US20250313563, Compound 826715] |
| < 100 nM | 100 to 1000 nM | CC1(C)CC(=O)C2=C(C1)NC1=C(CN=N1)C21CCc2c(Cl)cccc21 (stereo unspecified) [US20250313563, Compound 816795] |
